Measured values published in ChEMBL document CHEMBL4715869, “N-(Pyrimidin-2-yl)-1,2,3,4-tetrahydroisoquinolin-6-amine Derivatives as Selective Janus Kinase 2 Inhibitors for the Treatment of Myeloproliferative Neoplasms” (J Med Chem, 2020).

Legend:
Homo sapiens = organism: Homo sapiens; assay: Selectivity index, ratio of IC50 for inhibition of FLT3 ITD mutant in human MOLM13 cells to IC50 for inhibition of JAK2 V617F mutant in human SET-2 cells; type: cell-based
[1] = tested on: Receptor-type tyrosine-protein kinase FLT3 (Homo sapiens), P36888 [UNDEFINED MUTATION]; assay: Inhibition of FLT3 ITD mutant in human MOLM13 cells assessed as residual activity at 100 nM relative to control; type: cell-based; conditions: MOLM-13
[2] = molecular target: Tyrosine-protein kinase JAK1 (Homo sapiens, UniProt P23458); assay: Inhibition of human JAK1 (866 to end residues) using GEEPLYWSFPAKKK as substrate after 40 mins by [gamma-33ATP] radiometric assay
Sequence of Tyrosine-protein kinase JAK1 (P23458 whole entry): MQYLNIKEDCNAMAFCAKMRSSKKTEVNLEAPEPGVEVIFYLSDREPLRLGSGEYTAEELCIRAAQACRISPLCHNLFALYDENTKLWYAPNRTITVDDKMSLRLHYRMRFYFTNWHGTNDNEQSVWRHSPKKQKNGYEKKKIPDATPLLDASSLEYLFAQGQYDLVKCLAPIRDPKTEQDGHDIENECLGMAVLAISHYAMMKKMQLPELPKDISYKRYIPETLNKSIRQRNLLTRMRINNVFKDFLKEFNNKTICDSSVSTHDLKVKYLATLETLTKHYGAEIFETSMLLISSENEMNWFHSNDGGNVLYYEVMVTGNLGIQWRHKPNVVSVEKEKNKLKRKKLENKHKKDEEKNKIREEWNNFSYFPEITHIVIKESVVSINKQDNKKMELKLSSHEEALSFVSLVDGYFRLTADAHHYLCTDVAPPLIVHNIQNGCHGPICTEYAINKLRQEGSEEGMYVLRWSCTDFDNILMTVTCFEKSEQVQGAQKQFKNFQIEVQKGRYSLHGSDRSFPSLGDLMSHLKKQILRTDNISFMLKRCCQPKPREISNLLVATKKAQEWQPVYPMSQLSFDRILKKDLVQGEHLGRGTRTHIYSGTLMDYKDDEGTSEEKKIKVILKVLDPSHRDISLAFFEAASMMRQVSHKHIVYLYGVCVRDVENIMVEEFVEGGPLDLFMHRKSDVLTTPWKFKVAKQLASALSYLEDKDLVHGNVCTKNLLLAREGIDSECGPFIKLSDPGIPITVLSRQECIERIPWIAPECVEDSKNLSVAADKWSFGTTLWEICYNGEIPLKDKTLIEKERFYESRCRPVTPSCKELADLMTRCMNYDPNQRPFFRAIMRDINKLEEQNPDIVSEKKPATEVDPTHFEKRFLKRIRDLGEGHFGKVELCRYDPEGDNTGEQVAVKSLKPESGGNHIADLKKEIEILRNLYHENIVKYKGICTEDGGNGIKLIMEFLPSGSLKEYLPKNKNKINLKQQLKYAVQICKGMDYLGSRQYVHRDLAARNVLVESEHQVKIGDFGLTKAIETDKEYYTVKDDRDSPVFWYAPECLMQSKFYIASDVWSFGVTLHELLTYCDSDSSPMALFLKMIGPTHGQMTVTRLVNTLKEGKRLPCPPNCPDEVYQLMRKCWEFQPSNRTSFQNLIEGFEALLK

[3] = molecular target: Tyrosine-protein kinase JAK2 (Homo sapiens, UniProt O60674); assay: Inhibition of recombinant human JAK2 (808 to end residues) KTFCGTPEYLAPEVRREPRILSEEEQEMFRDFDYIADWC as substrate measured after 40 mins in presence of [gamm33P]ATP by scintillation counting method
Sequence of Tyrosine-protein kinase JAK2 (O60674 whole entry): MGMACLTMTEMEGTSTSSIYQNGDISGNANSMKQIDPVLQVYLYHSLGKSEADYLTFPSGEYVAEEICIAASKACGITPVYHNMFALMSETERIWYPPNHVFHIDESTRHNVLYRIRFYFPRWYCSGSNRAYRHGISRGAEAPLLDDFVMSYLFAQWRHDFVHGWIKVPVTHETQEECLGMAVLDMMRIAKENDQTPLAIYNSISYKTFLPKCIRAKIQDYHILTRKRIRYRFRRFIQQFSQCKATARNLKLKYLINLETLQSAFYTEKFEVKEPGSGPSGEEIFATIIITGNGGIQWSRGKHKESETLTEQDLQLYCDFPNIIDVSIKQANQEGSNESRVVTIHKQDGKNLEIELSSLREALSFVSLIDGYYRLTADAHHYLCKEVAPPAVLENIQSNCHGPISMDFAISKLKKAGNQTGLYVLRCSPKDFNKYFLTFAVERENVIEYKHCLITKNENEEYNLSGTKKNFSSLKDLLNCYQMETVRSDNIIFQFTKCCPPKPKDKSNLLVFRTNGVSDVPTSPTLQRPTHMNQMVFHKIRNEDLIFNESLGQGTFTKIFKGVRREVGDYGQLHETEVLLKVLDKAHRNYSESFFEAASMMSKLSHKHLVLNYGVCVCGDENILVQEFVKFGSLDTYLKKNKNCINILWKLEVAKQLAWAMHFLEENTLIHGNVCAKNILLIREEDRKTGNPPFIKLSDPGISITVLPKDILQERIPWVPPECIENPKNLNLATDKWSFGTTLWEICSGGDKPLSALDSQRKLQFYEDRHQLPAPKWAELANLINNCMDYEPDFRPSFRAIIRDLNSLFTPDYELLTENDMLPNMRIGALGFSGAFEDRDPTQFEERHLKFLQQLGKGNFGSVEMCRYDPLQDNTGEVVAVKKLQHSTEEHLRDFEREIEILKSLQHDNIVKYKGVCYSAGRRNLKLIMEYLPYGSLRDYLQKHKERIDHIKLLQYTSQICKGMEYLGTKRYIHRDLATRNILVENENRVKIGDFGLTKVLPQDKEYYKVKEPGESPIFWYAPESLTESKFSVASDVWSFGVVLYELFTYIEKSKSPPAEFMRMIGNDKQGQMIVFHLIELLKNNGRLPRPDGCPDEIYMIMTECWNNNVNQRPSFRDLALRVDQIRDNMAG

[4] = molecular target: T1, Tyrosine-protein kinase JAK3 (Homo sapiens, UniProt P52333); assay: Inhibition of recombinant human JAK3 (781 to end residues) using GGEEEEYFELVKKKK as substrate measured after 40 mins in presence of [gamm33P]ATP by scintillation counting method
T1 sequence (P52333 whole entry): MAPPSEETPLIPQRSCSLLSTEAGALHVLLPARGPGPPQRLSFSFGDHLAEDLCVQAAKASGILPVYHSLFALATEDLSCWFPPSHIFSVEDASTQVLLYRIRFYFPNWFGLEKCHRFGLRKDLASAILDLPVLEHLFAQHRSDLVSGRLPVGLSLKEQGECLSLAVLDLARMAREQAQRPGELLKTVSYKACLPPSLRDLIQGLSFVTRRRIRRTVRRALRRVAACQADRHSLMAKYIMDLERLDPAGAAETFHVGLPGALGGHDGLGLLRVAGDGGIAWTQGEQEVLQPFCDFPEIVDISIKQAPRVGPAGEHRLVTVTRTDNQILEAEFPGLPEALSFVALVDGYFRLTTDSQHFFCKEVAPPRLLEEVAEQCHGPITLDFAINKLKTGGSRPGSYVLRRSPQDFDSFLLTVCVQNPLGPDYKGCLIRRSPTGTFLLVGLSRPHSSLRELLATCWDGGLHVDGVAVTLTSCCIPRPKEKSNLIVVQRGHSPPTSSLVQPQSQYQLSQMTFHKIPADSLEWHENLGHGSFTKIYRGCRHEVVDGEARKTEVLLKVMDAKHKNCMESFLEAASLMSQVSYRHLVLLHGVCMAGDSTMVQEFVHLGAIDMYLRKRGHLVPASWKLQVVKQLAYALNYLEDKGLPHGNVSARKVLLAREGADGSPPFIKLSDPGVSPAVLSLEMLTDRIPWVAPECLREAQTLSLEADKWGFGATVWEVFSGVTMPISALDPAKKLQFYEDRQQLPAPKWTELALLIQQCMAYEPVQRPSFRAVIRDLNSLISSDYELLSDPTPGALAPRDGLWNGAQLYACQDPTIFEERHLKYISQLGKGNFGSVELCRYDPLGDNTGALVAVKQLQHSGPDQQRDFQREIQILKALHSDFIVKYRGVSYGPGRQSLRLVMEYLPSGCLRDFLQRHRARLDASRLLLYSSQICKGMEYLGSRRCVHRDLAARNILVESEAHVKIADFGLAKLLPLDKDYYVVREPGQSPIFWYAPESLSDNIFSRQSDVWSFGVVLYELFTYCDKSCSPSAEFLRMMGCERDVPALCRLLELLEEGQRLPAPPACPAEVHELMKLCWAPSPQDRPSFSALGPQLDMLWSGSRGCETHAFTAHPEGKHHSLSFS

[5] = molecular target: Non-receptor tyrosine-protein kinase TYK2 (Homo sapiens, UniProt P29597); assay: Inhibition of recombinant human TYK2 (875 to end residues) using GGMEDIYFEFMGGKKK as substrate incubated for 40 mins in presence of [gamma33P]ATP by scintillation counting based radiometry assay
Sequence of Non-receptor tyrosine-protein kinase TYK2 (P29597 whole entry): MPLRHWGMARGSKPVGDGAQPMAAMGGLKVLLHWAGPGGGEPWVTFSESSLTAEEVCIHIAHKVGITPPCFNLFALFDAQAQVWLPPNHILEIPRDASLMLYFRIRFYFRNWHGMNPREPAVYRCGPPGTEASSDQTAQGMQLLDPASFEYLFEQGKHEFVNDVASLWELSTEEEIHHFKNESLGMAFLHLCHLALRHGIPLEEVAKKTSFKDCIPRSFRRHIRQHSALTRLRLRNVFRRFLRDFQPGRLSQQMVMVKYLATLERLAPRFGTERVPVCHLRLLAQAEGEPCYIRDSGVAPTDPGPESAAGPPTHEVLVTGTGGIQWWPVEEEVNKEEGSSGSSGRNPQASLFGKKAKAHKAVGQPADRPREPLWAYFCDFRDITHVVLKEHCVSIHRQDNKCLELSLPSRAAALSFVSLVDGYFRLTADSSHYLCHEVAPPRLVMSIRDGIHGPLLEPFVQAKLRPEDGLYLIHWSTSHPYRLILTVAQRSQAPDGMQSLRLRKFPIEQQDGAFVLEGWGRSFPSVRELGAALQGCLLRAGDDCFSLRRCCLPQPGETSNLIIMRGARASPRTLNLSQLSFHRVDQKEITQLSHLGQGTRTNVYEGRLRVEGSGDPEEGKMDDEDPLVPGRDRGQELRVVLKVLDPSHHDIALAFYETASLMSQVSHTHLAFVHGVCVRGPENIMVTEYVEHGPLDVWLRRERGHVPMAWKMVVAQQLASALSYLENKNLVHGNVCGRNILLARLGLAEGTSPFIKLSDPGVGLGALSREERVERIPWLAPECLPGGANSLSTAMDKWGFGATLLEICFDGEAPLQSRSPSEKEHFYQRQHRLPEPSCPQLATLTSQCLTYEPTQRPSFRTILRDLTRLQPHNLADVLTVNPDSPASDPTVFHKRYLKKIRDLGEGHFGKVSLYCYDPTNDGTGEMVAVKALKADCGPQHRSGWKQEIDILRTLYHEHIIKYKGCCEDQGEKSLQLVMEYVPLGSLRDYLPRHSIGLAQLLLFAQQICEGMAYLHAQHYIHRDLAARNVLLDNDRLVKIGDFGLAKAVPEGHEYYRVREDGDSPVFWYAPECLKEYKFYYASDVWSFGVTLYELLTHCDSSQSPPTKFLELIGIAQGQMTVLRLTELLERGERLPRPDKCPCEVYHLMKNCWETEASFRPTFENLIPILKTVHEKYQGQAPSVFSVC

[6] = molecular target: Receptor-type tyrosine-protein kinase FLT3 (Homo sapiens, UniProt P36888, D835Y); assay: Inhibition of recombinant human FLT3 D835Y mutant (564 to end residues) using EAIYAAPFAKKK as substrate at 40 mins in presence of [gamma-33ATP] by scintillation counting based radiometry assay
[7] = Selectivity index, ratio of IC50 for inhibition of human JAK1 (866 to end residues) to IC50 for inhibition of recombinant human JAK2 (808 to end residues)
[8] = Selectivity index, ratio of IC50 for inhibition of recombinant human JAK3 (781 to end residues) to IC50 for inhibition of recombinant human JAK2 (808 to end residues)
[9] = Selectivity index, ratio of IC50 for inhibition of recombinant human TYK2 (875 to end residues) to IC50 for inhibition of recombinant human JAK2 (808 to end residues)
[10] = Selectivity index, ratio of IC50 for inhibition of recombinant human FLT3 D835Y mutant (564 to end residues) to IC50 for inhibition of recombinant human JAK2 (808 to end residues)
[11] = Inhibition of JAK2 V617F mutant in mouse BaF3 cells assessed as reduction in cell viability incubated for 72 hrs by MTT assay
Vero = assay: Cytotoxicity against African green monkey Vero cells assessed as reduction in cell viability incubated for 72 hrs by MTT assay; type: cell-based; conditions: Chlorocebus sabaeus
[12] = Cytotoxicity against rat H9c2(2-1) cells assessed as reduction in cell viability incubated for 72 hrs by MTT assay; type: cell-based; conditions: H9c2, 72 h
L02 = assay: Cytotoxicity against human L02 cells assessed as reduction in cell viability incubated for 72 hrs by MTT assay; type: cell-based; conditions: L02, 72 h
SET-2 = assay: Antitumor activity against human SET2 cells xenografted in NOD/SCID mouse assessed as tumor growth inhibition at 60 mg/kg, po qd administered for 16 days and measured every 2 days relative to control; type: functional; conditions: SET-2, po, 384 h, time 16 day, read-out: TGI
BaF3 = assay: Antitumor activity against mouse BAF3 cells harboring JAK2 V617F mutant implanted in Balb/c mouse assessed as decrease in liver weight at 60 mg/kg, po qd administered starting from day 4 to 20 and measured on day 25 relative to control; type: functional; set-up: scale not given: the % may be the effect or the level left; conditions: time 21 day

Row | Activity [1] [%] | IC50 [2] [nM] | IC50 [3] [nM] | IC50 [4] [nM] | IC50 [5] [nM] | IC50 [6] [nM] | Ratio IC50 [7] | Ratio IC50 [8] | Ratio IC50 [9] | Ratio IC50 [10] | Compound | Ratio IC50 (Homo sapiens) | IC50 [11] [nM] | IC50 (Vero) [nM] | IC50 [12] [nM] | IC50 (L02) [nM] | inhibition in vivo at 60 mg/kg (SET-2) [%] | Activity (BaF3) [%]
1 | 50 | 43 | 7 | 54 | 56 | 108 | 6.1 | 7.7 | 8 | 15.4 | Cc1cnc(Nc2ccc3c(c2)CCN(CC#N)C3)nc1-c1cnn(C(C)C)c1 | 8.8 | – | – | – | – | – | –
2 | 5 | – | – | – | – | – | – | – | – | – | Cc1cnc(Nc2ccc(N3CCC(N(C)CCO)CC3)c(F)c2)nc1-c1cnn(C(C)C)c1 | – | 145 | – | – | – | – | –
3 | 41 | 47 | 10 | 120 | 79 | 34 | 4.7 | 12 | 7.9 | 3.4 | Cc1cnc(Nc2ccc3c(c2)CCN(C(=O)/C=C/C(=O)c2ccccc2)C3)nc1-c1cnn(C(C)C)c1 | 8.8 | – | – | – | – | – | –
4 | 53 | 26 | 2 | 77 | 88 | 23 | 13 | 38.5 | 44 | 11.5 | COC(=O)/C=C/CN1CCc2cc(Nc3ncc(C)c(-c4cnn(C(C)C)c4)n3)ccc2C1 | 36.3 | – | 2330 | 2890 | 1530 | – | –
5 | 59 | – | – | 28 | 30 | 18 | – | – | – | – | Cc1ccc(C(=O)/C=C/C(=O)N2CCc3ccc(Nc4ncc(C)c(-c5cnn(C(C)C)c5)n4)cc3C2)cc1 | – | – | 2470 | 1690 | 2030 | – | –
6 | 52 | 91 | 9 | 147 | 45 | 23 | 10 | 16 | 5 | 2.5 | Cc1cnc(Nc2ccc3c(c2)CN(C(=O)/C=C/CN(C)C)CC3)nc1-c1cnn(C(C)C)c1 | 29.8 | – | – | – | – | – | –
7 | 47 | 30 | 2 | 89 | 52 | 16 | 15 | 44.5 | 26 | 8 | Cc1cnc(Nc2ccc3c(c2)CN(C(=O)/C=C/C(=O)c2ccccc2)CC3)nc1-c1cnn(C(C)C)c1 | 12.5 | – | – | – | – | – | –
8 | 55 | 60 | 3 | 50 | 100 | 30 | 20 | 16.6 | 33.3 | 10 | Cc1ccc(C(=O)/C=C/C(=O)N2CCc3cc(Nc4ncc(C)c(-c5cnn(C(C)C)c5)n4)ccc3C2)cc1 | 51.6 | – | 1050 | 1430 | 2660 | – | –
9 | – | – | – | – | – | – | – | – | – | – | N#CC[C@H](C1CCCC1)n1cc(-c2ncnc3[nH]ccc23)cn1 [RUXOLITINIB] | – | – | – | – | – | 52.8 | 80.4
